Patent publication US12642756B2, “Leave-on composition” (Firmenich SA, priority 2020, dated 2026)

Experiments:
[1] = tested on: Hydrolase (Lipase solution 0.100 LU/ml); assay: Fragrance evolution on Tzero lids (dynamic headspace), palmitate esters; assay type: biochemical
Description: To further investigate the release kinetics of palmitate esters in the presence of hydrolases, an in-vitro assay measuring the functional perfume ingredient in the gaseous phase was devised.
Three palmitate esters releasing respectively (2E,6Z)-nona-2,6-dien-1-ol (corresponding to invention's compound) and 3,7-dimethyl-2,6-octadien-1-ol (corresponding to comparative compound) were tested in the presence of physiologically relevant concentration of Hydrolase (0.1 LU/ml) as follows. 2.5 ul Lipase solution (0.100 LU/ml) was added to Tzero Lids TA [Part no. 901671.901] crucibles. 2.5 ul of 0%, […], 0.1%, […] and 1% solution in ethanol of palmitate esters were added to the same crucibles and placed on preheated precision hotplate to 32C. Additional aliquots of 2.5 ul water were added to the crucibles at 1 h and 4 h to simulate humidity on skin and facilitate hydrolysis. The crucibles were transferred to 20 ml headspace vials after […] at 32C.
Analysis performed by Dynamic Headspace using Tenax TA trap outlined as follows. GC-MS-DHS analyses were performed on an Agilent Gas Chromatograph system 7890B coupled to an Agilent Mass Selective Detector 5977B and equipped with a Gerstel MPS autosampler. […]

[2] = Paneling of released fragrance alcohols on glass slides (sensory panel)
Description: Evaporation kinetics using 76 mm×51 mm glass slides was carried out. Prazitherm precision hotplate was pre-heated to 32 degrees Celsius for 30 minutes. Three glass slides were placed on the precision hotplate. Each glass slide is labeled with a unique code so that its identity is unknown to the panelists. Using a Gilson Microman M25 positive displacement pipette, […] of 0.1 LU lipase solution was dosed directly to the center of one of the glass slides. Then 20 μl of 1% (2E,6Z)-nona-2,6-dien-1-yl hexadecanoate was dosed very slowly to the lipase droplet. Once all the sample solution was applied onto the glass slide, the applied glass slide was evaporated on the precision hotplate for 4 hours at 32 degrees Celsius. Sample preparation for 1% (Z)-3-hexen-1-yl hexadecanoate solution and 1% 3,7-dimethyl-2,6-octadien-1-yl hexadecanoate solution were done the same way. Sample preparations for all three solutions were repeated for duplicates to replace each glass slide twice during the sensory panel period—the limit for a glass slide sample set (with 3 different glass slide samples) was 10 evaluations. At the 4-hour time interval, a spray bottle filled with deionized water was primed and then water was sprayed directly onto each glass slide once. One spray was enough to cover the glass slide. All glass slides were allowed to sit for 10 minutes before the sensory panel so the water was absorbed by the evaporated mixtures to represent humidity on skin. For evaluation, the panelist picks up the treated glass slides, smells the center and rates the intensity of each slide on an evaluation sheet.
In one test, the panelists rated odor intensity on a scale of 1 to 7 for each glass slide evaluated under release by the hydrolase at time 4 hours. The second approach was the so-called forced choice where panelists were forced to select the most intense out of the three […] after release with the Hydrolase at 4 hours at 0.1 LU/ml.

[3] = tested on: Hydrolase (Lipase solution 0.100 LU/ml); assay: Fragrance evolution on Tzero lids (dynamic headspace) in a personal care base; assay type: biochemical; settings: day cream base O/W emulsion with 1 wt% compound, absence of hydrolase (water control), 32C, 4 hours
Description: To confirm fragrance release in presence of personal care base, personal care base was formulated with invention's compound and analyzed by an in-vitro assay measuring the functional perfume ingredient in the gaseous phase.
Testing was done in the presence of physiologically relevant concentration of Hydrolase (0.1 LU/ml) as follows. […] 901671.901] crucibles. 2.5 ul of personal care base with (2E,6Z)-nona-2,6-dien-1-yl hexadecanoate was added to the same crucibles and placed on preheated precision hotplate to 32C. Additional aliquots of 2.5 ul water were added to the crucibles at 1 h and 4 h to simulate humidity on skin and facilitate hydrolysis. The crucibles were transferred to 20 ml headspace vials after 4 hours at 32C.
Analysis performed by Dynamic Headspace using Tenax TA trap outlined as follows. GC-MS-DHS analyses were performed on an Agilent Gas Chromatograph system 7890B coupled to an Agilent Mass Selective Detector 5977B and equipped with a Gerstel MPS autosampler. Additionally equipment of automated Gerstel Dynamic Headspace System, ATEX air sampling tube gripper for 20 mL headspace vials with a metal screw cap (preassembled with 1.3 mm PTFE septa) and Gerstel CIS 4C cryostatic cooling device CCD2 (Inlet 2) mounted with Gerstel TDU2 thermal desorption unit. […]

[4] = tested on: lipase enzyme (Enzyme Innovation Addclean LP L); assay: Reaction rate measurement in solution in the presence of a hydrolase (GC/MS); assay type: biochemical
Description: The release kinetics of 3,7-dimethyl-2,6-octadien-1-yl hexadecanoate (comparative compound) and (2E,6Z)-nona-2,6-dien-1-yl hexadecanoate (invention's compound) in the presence of a hydrolase were compared.
In order to compare the reaction rate of the esters, the amount of 3,7-dimethyl-2,6-octadien-1-yl hexadecanoate and (2E,6Z)-nona-2,6-dien-1-yl hexadecanoate and the amount of ethyl hexadecanoate over time were measured by GC/MS. The ethyl hexadecanoate was formed by the reaction between the hexadecanoic acid released and the ethanol.
Enzyme Solution Preparation: The lipase enzyme source used was Enzyme Innovation Addclean LP L at an activity of 20000 Lipase Units/g. A stock solution of 100 LU/ml was prepared and diluted in serial dilution to working concentrations as follows:
The solutions comprising 3,7-dimethyl-2,6-octadien-1-yl hexadecanoate or (2E,6Z)-nona-2,6-dien-1-yl hexadecanoate (also called palmitate ester solutions) were prepared by dissolving in ethanol to 5% by weight. These were subsequently diluted to working conditions of the experiment.
In a 2 ml Agilent GC vial (Agilent 5183-2068), 50 ul of 100 LU/ml solution was added with a micropipette. 100 ul deionized water was added to ensure continued hydrolysis. Samples to were prepared for each time condition, replicate, and palmitate ester solutions of interest because the reaction will be stopped and only measured once at 0 hours, 0.5 hours and 1 hour. […]
The palmitate esters were prepared by dissolving in ethanol to 5% by weight (stock). Palmitate ester solution was further diluted to 0.2% and 50 ul added to all sample vials above and recorded as time zero. […] Samples were analyzed by GC/MS direct injection methodology as follows.
GC-MS analyses were performed on an Agilent Gas Chromatograph system 7890B coupled to an Agilent Mass Selective Detector 5977B and equipped with a Gerstel MPS autosampler or equivalent. […] External calibration curves of (2E,6Z)-nona-2,6-dien-1-yl hexadecanoate and 3,7-dimethyl-2,6-octadien-1-yl hexadecanoate were prepared at 10-500 ppm was prepared and sample signal quantified in ppm.

[5] = glass slide, 0.1 LU/ml lipase, 4 hours

release of (2E,6Z)-nona-2,6-dien-1-ol in headspace from personal care base [3] | Compound | release rate compared with 3,7-dimethyl-2,6-octadien-1-yl hexadecanoate ([1]; stated in Example 6, test not named) | perception / impression by the panelists [2, 5] | rate of release of fragrance material into headspace ([1]; Hydrolase 0.1 LU/ml, 32C, 4 hours, on Tzero lids (FIG. 3)) | total rate of lipase-catalyzed reaction ([4]; compared with 3,7-dimethyl-2,6-octadien-1-yl hexadecanoate) | concentration of the ester in solution in function of time ([4]; lipase 100 LU/ml solution, 32C, 0, 0.5 and 1 hour, GC/MS, compared with 3,7-dimethyl-2,6-octadien-1-yl hexadecanoate (FIG. 1)) | release of the alcohol, confirmed by increase of ethyl hexadecanoate ([4]; lipase, ethanol present, 32C, up to 1 hour, compared with 3,7-dimethyl-2,6-octadien-1-ol (FIG. 2)) | odor intensity rated by panelists on a scale of 1 to 7 ([2]; 1% solution on glass slide, 0.1 LU/ml lipase, 4 hours at 32 degrees Celsius, versus the two other hexadecanoates (FIG. 6)) | forced choice: panelists who selected the sample as the most intense ([2]; glass slide, Hydrolase 0.1 LU/ml, 4 hours, three esters compared (FIG. 7))
– | CC/C=C\CCOC(=O)CCCCCCCCCCCCCCC [(Z)-3-hexen-1-yl hexadecanoate, reference compound] | release faster than 3,7-dimethyl-2,6-octadien-1-yl hexadecanoate | not well perceived by the panelists | – | – | – | – | – | –
no release is observed | CC/C=C\CC/C=C/COC(=O)CCCCCCCCCCCCCCC [(2E,6Z)-nona-2,6-dien-1-yl hexadecanoate] | – | the most intense impression | higher rate than 3,7-dimethyl-2,6-octadien-1-yl hexadecanoate | higher total rate of lipase-catalyzed reaction | decreased more rapid than the concentration of 3,7-dimethyl-2,6-octadien-1-yl hexadecanoate | faster release of (2E,6Z)-nona-2,6-dien-1-ol compared to 3,7-dimethyl-2,6-octadien-1-ol | significantly more intense | 20/21
